Laboratory results taken from US20100204141A1, “USE OF BPP-B AS A THERAPEUTIC AGENT” (priority 2007, published 2010).
Square brackets hold non-standard residues; d marks the D form. Peptide text beside a SMILES is read from it. pGlu = O=C1CC[C@@H](C(=O)O)N1

Tested on: drug-resistant Mycobacterium tuberculosis
Conditions: 5 micrograms per ml

## CC[C@H](C)[C@H](NC(=O)[C@H](CCCCN)NC(=O)[C@@H]1CCCN1C(=O)[C@H](CCCNC(=N)N)NC(=O)[C@@H]1CCCN1C(=O)[C@@H]1CCCN1C(=O)[C@H](CC(C)C)NC(=O)CNC(=O)[C@@H]1CCC(=O)N1)C(=O)N1CCC[C@H]1C(=O)N1CCC[C@H]1C(=O)O [Bradykinin potentiator B, Pyr-Gly-Leu-Pro-Pro-Arg-Pro-Lys-Ile-Pro-Pro-OH] ([pGlu]GLPPRPKIPP-OH)
  % inhibition: 0.0%
